Data as given in ChEMBL document CHEMBL3988442, “University of Dundee, Small-Polar-MMV Screening Library” (2021).

Test system: Schistosoma mansoni
Assay: High throughput screening of compounds against Schistosoma mansoni motility
Type: functional
Parameters: dose or concentration left out as unconfirmed

| Structure (SMILES) | Percent Effect [%] |
| --- | --- |
| O=C(c1ccc(Br)o1)N1CCCC(n2cncn2)C1 (stereo not given) | -24.61 |
| O=C(CCc1ccc(=O)[nH]n1)N1CCCC(COc2ccc(F)cc2)C1 (stereo not given) | 4.924 |
| O=C(CCc1cc2n(n1)CCCN(C(=O)c1cccnc1)C2)NC1CC1 | 5.877 |
| NC(=O)NCC(=O)N1C[C@H]2CC[C@@H]1CN(Cc1ccccc1)C2 | -13.56 |
| Cn1cc(-c2csc(CN3CCOCC3)n2)cn1 | 14.63 |
| Cc1cc(C)n(CC2CCCN2C(=O)c2ccc3[nH]nnc3c2)n1 (stereo not given) | -6.294 |
| CN(C)CCN(Cc1ccc(Cl)cc1)C(=O)c1cc[nH]n1 | 46.97 |
| O=C(CCCc1cn[nH]c1)N1C[C@@H](CN2CCOCC2)[C@@H](CO)C1 | -60.63 |
| CCn1nc(CC(C)C)cc1C(=O)NCCn1cccc1 | -58.97 |
| COc1ccc(NC(C)C(=O)NCCc2cccs2)cc1F (stereo not given) | -15.23 |
| c1cc(C2CCCN2Cc2nnnn2C2CC2)cs1 (stereo not given) | -76.39 |
| Cc1ccccc1S(=O)(=O)NC(=O)CSc1ccc2c(c1)OCCO2 | -27.11 |
| CC(OCC(F)(F)F)C(=O)N1CCN(S(C)(=O)=O)CC1 (stereo not given) | -54.53 |
| CSCC[C@H](N)C(=O)NCc1cc2n(n1)CCCN(C1CCCCC1)C2 | -26.84 |
| CN(C)C(C(=O)N1CCC(N2CCSCC2)CC1)c1ccccc1F (stereo not given) | 10.46 |
| CC1CN(C)c2ccccc2CN1C(=O)CSc1ccncc1 (stereo not given) | 7.617 |
| Cc1occc1C(=O)Nc1ccnc(OC2CCOC2)c1 (stereo not given) | -74.39 |
| COc1ccccc1OCc1cc(C(=O)N2CC=CC2C(C)C)n[nH]1 (stereo not given) | -26.69 |
| Cc1cc(CC(=O)N2CCN(CC3CC3)[C@@H]3CS(=O)(=O)C[C@@H]32)ccc1F | 11.19 |
| CSC(C)C(=O)NCCCc1cc(N)n(-c2ccccc2)n1 (stereo not given) | -59.95 |
| CCN(c1ccc(C(=O)N2CCCC2)cc1)S(=O)(=O)CC | 5.771 |
| CCSCC(C)NCc1nncn1C1CCCCC1 (stereo not given) | 1.244 |

| Structure (SMILES) | Percent Effect [%] |
| --- | --- |
| O=C(c1cc(Cl)cc(Cl)c1)N1CCN(c2nccs2)CC1 | -19.81 |
| CC(C)(C)C(=O)NCCC(=O)NS(=O)(=O)c1ccc2c(c1)OCCO2 | -42.92 |
| CCCS(=O)(=O)c1ncc(CN2CCC(CO)CC2)n1CC1CCCO1 (stereo not given) | -65.7 |
| O=C1NCCCCC1Sc1nnc(C2CC2)n1C1CC1 (stereo not given) | -44.06 |
| CCc1nnc2n1CCN(Cc1csc(-c3ccsc3)n1)C2 | -55.89 |
| CC(CNC(=O)c1ccc(F)cc1Cl)N1CCCC1 (stereo not given) | -36.02 |
| Cc1csc(CNC(=O)Nc2cc(C(F)(F)F)c[nH]c2=O)n1 | 7.294 |
| C[C@@H]1CN(C2(C(=O)N3CCOCC3)Cc3ccccc3C2)C[C@H](C)O1 | 12.59 |
| Cc1ccc(C(=O)NC(CN2CCCC2=O)c2ccccc2)c(=O)[nH]1 (stereo not given) | -58.7 |
| O=C(NCC(F)F)N1CCC(n2ccc(C(F)(F)F)n2)CC1 | -27.04 |
| Cn1cnnc1S(=O)(=O)C1CCN(S(=O)(=O)c2c(Cl)cccc2Cl)CC1 | -2.116 |
| Cc1ccsc1[C@@H]1CCN(C(=O)c2cc3ccccc3[nH]2)C[C@H]1O | 28.15 |
| CC(C)(CO)NC(=O)C1CCC(=O)N(Cc2ccc(Cl)cc2)C1 (stereo not given) | -0.822 |
| CN1CCC(c2nnc(CN3CCC(O)CC3)n2C)CC1 | -3.365 |
| O=C(CSc1ccncc1)N1C[C@H]2CC[C@@H]1CN(Cc1cccnc1)C2 | -27.79 |
| O=C(c1cccnc1)N1C[C@@H]2CC[C@H](C1)N(Cc1ncc[nH]1)C2 | -27.62 |
| Cc1nc(C)n(CC2CCCN2CCCc2ccccc2)n1 (stereo not given) | -9.599 |
| O=C(NCC(Cc1cccc(F)c1)N1CCCC1=O)c1ccccc1 (stereo not given) | -23.79 |
| O=C(c1cn(-c2cc(N3CCSCC3)ncn2)cn1)N1CCSCC1 | -48.35 |
| Cc1cccc(CS(=O)(=O)NCC(O)Cc2ccccc2)c1 (stereo not given) | 8.547 |
| Cc1nc(C)n(CC2CCCN2CC(=O)NCCc2ccccc2)n1 (stereo not given) | -20.52 |
| COCC(C)(O)CNC(=O)COc1ccccc1OC (stereo not given) | -28.83 |

| Structure (SMILES) | Percent Effect [%] |
| --- | --- |
| CC(C)NC(=O)N1CCC(n2ccc(C(F)(F)F)n2)CC1 | -11.19 |
| O=C(CCc1ccc(O)cc1)N1CCC(Cc2ccc(CO)cc2)C1 (stereo not given) | 16.91 |
| O=C1NCCCCC1Sc1nnc(-c2cccnc2)n1C1CC1 (stereo not given) | -73.97 |
| Cc1ccn(-c2ccccc2NCc2ncc[nH]2)n1 | -21.01 |
| N#Cc1ccc(OC2CCN(C(=O)c3ccc4c(c3)OCO4)CC2)nc1 | -46.44 |
| NC(=O)CN1CCCN(C(=O)c2ccn(-c3cccc(F)c3)n2)CC1 | -9.604 |
| CCOCCNc1nc(C2CCCC2)nc2c1cnn2C | -80.64 |
| O=C(CCc1cscn1)NS(=O)(=O)c1ccc2c(c1)CCC2 | 28.79 |
| O=C(CCCc1ccc(F)cc1)N1C[C@@H](CN2CCOCC2)[C@@H](CO)C1 | -22.43 |
| O=C(c1cccnc1)N1C[C@@H]2CC[C@H](C1)N(Cc1cc(F)ccc1F)C2 | -34.82 |
| CCc1nc(CN2CCCC(N(C)Cc3cnc(C)s3)C2)no1 (stereo not given) | 23.33 |
| CCCS(=O)(=O)Nc1ccc2c(c1)OCC(C)(C)C(=O)N2C | 7.848 |
| CCc1ccc(C(=O)N2CCCC(n3cncn3)C2)o1 (stereo not given) | -35.91 |
| CN(CCc1ccccc1)c1cnn(CC(=O)N2CCSCC2)c(=O)c1 | -28.25 |
| CCCOc1ccc(NC(=O)NCCC(=O)N(C)C)cc1Cl | -22.9 |
| COc1ccccc1CC(=O)NCCCN1CCCC1C(=O)N(C)C (stereo not given) | -6.29 |
| Cc1nn(C)c(C)c1NC(=O)CN1CCCC1c1noc(C2CC2)n1 (stereo not given) | -50.94 |
| CC(C)CNC(=O)Nc1ccc(CN2CCOC2=O)cc1 | 8.42 |
| COc1ccc(C2CCCN2C(=O)NCCNc2ncccn2)cc1 (stereo not given) | -55.34 |
| COC(=O)c1sccc1NC(=O)C1CCCN1C(=O)c1ccco1 (stereo not given) | 1.887 |
| Cn1ncc2c(NCCOc3ccc(F)cc3)nc(C3CCCC3)nc21 | 106.6 |
| CCc1nnc2n1CCN(C(=O)c1cnc3ccccc3n1)C2 | -44.56 |

| Structure (SMILES) | Percent Effect [%] |
| --- | --- |
| CNC(=O)CCNC(=O)c1cccc(Cn2nc(C)cc2C)c1 | -2.451 |
| Cc1cc(C(=O)N2CCCC2c2nnc3n2CCCCC3)no1 (stereo not given) | -2.272 |
| CSCC(C)(O)CNC(=O)c1cc(Br)ccc1Cl (stereo not given) | -27.72 |
| COc1ccc(F)cc1S(=O)(=O)NCC(c1cccn1C)N(C)C (stereo not given) | -13.44 |
| O=S(=O)(NCC1(O)CCOc2ccccc21)c1cccs1 (stereo not given) | -21.06 |
| O=C1CC(c2cccs2)c2snc(C(=O)O)c2N1 (stereo not given) | 18.04 |
| COCCNS(=O)(=O)c1ccc2c(c1)CCN(C(=O)c1cncn1C)C2 | 4.246 |
| CCSc1cc(C(=O)NCCC(=O)Nc2ccccn2)ccn1 | -76.69 |
| CNC(=O)CS(=O)(=O)C1CCN(S(=O)(=O)c2ccccc2Br)CC1 | -49.15 |
| Cc1cc(C[C@@H]2COC[C@@H]2NC(=O)CN2CCCN(C)CC2)on1 | -19.51 |
| Cc1cccc(C2(C(=O)NCCCn3cccn3)CC2)c1 | -39.94 |
| Cc1cc(C[C@@H]2COC[C@@H]2NC(=O)Cn2c(=O)oc3ccccc32)on1 | -26.12 |
| COC(=O)c1sccc1S(=O)(=O)N1CCC(Oc2ncccc2Cl)CC1 | -59.58 |
| Cc1cn(-c2ccccc2)nc1NS(=O)(=O)c1cccc(C(=O)O)c1 | -30.44 |
| O=c1nc(SCc2ccncc2)c2c(n1CCO)CCCC2 | -51.22 |
| O=C1CCCCN1Cc1cccc(NC(=O)N2CCSCC2)c1 | 22.51 |
| O=C(c1cccnc1)N1C[C@@H]2CC[C@H](C1)N(Cc1cccc(Cl)c1F)C2 | 6.232 |
| Cc1nc(C(C)(C)NC(=O)Nc2ccccc2)no1 | -55.91 |
| Cc1ccc(C(=O)N2CCC3(CCC(=O)N(CC(N)=O)C3)CC2)c(O)c1 | -13.5 |
| O=C(CCc1nccs1)N1CCC(N2CCNC2=O)CC1 | -51.15 |
| c1csc(-c2nc(CN3CCCC3Cn3cncn3)co2)c1 (stereo not given) | -94.11 |
| Cc1noc(C)c1CCC(=O)N1CCN(CCn2cccn2)CC1 | -23.72 |

| Structure (SMILES) | Percent Effect [%] |
| --- | --- |
| COc1ccc(OC)c(CNCCc2cc(F)cc3c2OCOC3)c1 | 89.81 |
| O=C1CCSCC(C(=O)N2CCN(C3CCCCC3)CC2)N1 (stereo not given) | -48.25 |
| O=C(NCCN1CCC(c2cccs2)CC1)Nc1cccs1 | -30.63 |
| Cc1ccc(S(=O)(=O)NC(=O)c2cccc3c2OCCO3)c(C)c1 | -13.74 |
| COc1ccccc1OCC(=O)Nc1ncccc1Cl | -2.169 |
| Cc1cc(C(=O)N2CCC(c3nccn3Cc3ccncc3)CC2)no1 | -48.3 |
| CC(=O)c1cc(CN2C[C@H]3CC[C@@H]2CN(S(=O)(=O)N(C)C)C3)cs1 | -16.28 |
| CNC(=O)COc1ccc(CNCc2ccc(F)cc2F)cc1 | -31.94 |
| Cc1cccnc1CN1CCC(c2nnc(Cn3cccn3)n2C)CC1 | -11.55 |
| CC(C)=CCN1C(=O)[C@H]2CC[C@@H]1CN(Cc1cccnc1N)C2 | -5.593 |
| Cc1cc(NC(=O)CN2CCCC2c2noc(C3CC3)n2)no1 (stereo not given) | -30.12 |
| CCc1ccccc1C(=O)N1CCN(S(C)(=O)=O)[C@@H](C)C1 | -27.03 |
| COc1ccc(C2CCCCCN2S(=O)(=O)N(C)C)cc1 (stereo not given) | 18.41 |
| Cc1occc1C(=O)N1CCC2(CCCN(CC3CCC3)C2=O)C1 (stereo not given) | -40.66 |
| CCC(=O)N1CCc2[nH]cnc2C12CCN(C(=O)CCS(C)(=O)=O)CC2 | -12.74 |
| Cn1cnnc1S(=O)(=O)C1CCN(S(=O)(=O)c2ccc(F)c(Cl)c2)CC1 | -43.49 |
| CC(OCC(F)(F)F)C(=O)N1CCCCC1 (stereo not given) | -17.04 |
| CC(Cn1cccn1)NC(=O)Nc1ccc(F)cc1 (stereo not given) | -15.2 |
| Cn1cnc(S(=O)(=O)N2CCCC2)c1Cl | -11.59 |
| CCc1ncc2c(n1)CN(C(=O)COC)C2 | -20.5 |
| C[C@@H]1CN(C2(C(=O)N3CCCCCC3)Cc3ccccc3C2)C[C@H](C)O1 | 12.64 |
| Cc1n[nH]c(C)c1C1CCCN1C(=O)NCCSC(C)(C)C (stereo not given) | -28.72 |
